Reference: patent US12122760B2, “Compound, composition, and use thereof in preparation of drug” (CHANGSHA ZEDA MEDICAL TECH. CO., LTD, priority 2019, dated 2024)

Columns and labels:
androgen receptor (AR) = target: T1, androgen receptor (AR) (Homo sapiens, UniProt P10275); assay: Luciferase reporter gene experiment (MMTV-LUC + pSV-AR in 293T cells); format: cell-based; details: 10 nM DHT, FIG. 2
T1 construct: expressed in transfected cells; host or cells: 293T cells
T1 sequence (P10275 1-920): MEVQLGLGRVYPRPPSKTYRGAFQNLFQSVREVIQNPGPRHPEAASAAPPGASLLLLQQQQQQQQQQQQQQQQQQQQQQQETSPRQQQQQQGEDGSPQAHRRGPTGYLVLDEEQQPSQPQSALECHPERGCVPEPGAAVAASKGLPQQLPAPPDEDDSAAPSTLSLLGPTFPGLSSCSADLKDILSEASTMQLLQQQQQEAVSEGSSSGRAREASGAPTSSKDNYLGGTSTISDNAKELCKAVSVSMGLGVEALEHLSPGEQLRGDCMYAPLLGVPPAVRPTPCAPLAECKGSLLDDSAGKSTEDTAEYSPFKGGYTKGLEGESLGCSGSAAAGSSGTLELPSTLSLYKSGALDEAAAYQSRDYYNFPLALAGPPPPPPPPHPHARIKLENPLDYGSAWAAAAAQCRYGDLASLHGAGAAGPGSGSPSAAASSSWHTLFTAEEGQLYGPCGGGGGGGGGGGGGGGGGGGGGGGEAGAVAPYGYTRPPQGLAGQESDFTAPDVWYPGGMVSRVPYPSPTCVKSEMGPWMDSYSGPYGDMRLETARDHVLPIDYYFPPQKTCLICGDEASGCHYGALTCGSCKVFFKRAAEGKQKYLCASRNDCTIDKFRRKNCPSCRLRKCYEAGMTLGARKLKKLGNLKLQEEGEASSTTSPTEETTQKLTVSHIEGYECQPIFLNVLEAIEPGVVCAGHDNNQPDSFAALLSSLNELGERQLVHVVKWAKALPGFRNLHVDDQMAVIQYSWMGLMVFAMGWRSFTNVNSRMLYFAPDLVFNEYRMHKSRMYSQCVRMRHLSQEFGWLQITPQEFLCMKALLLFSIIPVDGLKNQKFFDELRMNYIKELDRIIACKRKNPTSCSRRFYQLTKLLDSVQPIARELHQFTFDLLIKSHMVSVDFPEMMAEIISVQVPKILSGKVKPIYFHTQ
Description: 293T cells are cultured in a 96-well plate. AR plasmids and luciferase genes with AR target promoters are co-transfected in the 293T cells. AR activates the target promoters to express luciferase, and the expression level of the luciferase is directly proportional to AR activation. Adding DHT to the cells can activate AR and express the luciferase, thus enhancing fluorescence signal detection. By detecting the fluorescent signal, it can be examined whether an added drug has AR antagonist activity.
The luciferase reporter gene plasmid MMTV-LUC containing the androgen receptor (AR) target promoters and the plasmid pSV-AR expressing the androgen receptor (AR) are constructed. The 293T cells are inoculated in a 96-well plate, wherein each well containing 1×10^4 cells. The cells are incubated overnight to stick to the wall. On the second day, Lipofectamine® 3000 (Life technologies, USA) is used to transfect the plasmid into the cells. Each well is added with 180 ng of MMTV-LUC plasmid and 20 ng of pSV-AR plasmid. On the third day, each well is added with 10 nM of the DHT and the drugs of different concentrations of 1 nM, 10 nM, 100 nM, 1 uM, 10 uM, 25 uM, 50 uM respectively. The control is 10 nM of the DHT. On the fifth day, a luciferase reporter gene detection kit (Biyuntian company, China) is used to process the cells. 100 uL of cell lysate is added to the 96-well plate, and lyse for 20 min. Then centrifuging is performed at 4 degrees and 10000 g for 3 min. 50 uL of supernatant is taken and 100 uL of a luciferase detection reagent is added. After mixing, chemiluminescence is immediately detected on the multi-functional microplate reader. Graphpad Prism software is used to draw a curve by using the drug concentration as an abscissa and using drug fluorescence value/positive control fluorescence value as an ordinate. Herein MDV3100 is the positive control.

VCaP cells = assay: Inhibiting effect on VCaP cell proliferation (MTS); format: cell-based; details: 4 days treatment, FIG. 6; for cell proliferation inhibitory effect compared with positive control drug MDV3100: VCaP cells
Description: Androgen-sensitive prostate cancer cell (VCaP cells) are cultured in a 96-well plate. The VCaP cells are able to proliferate in a medium supplemented with 10 nM of the DHT. After treating the cells with the drugs for 4 days, we measure the effects of the drugs on the proliferation of the prostate cancer cells.
The VCaP cells are cultured by using 5% CSS and 1640 medium without phenol red, and inoculated in the 96-well plate. 1×10^4 cells are added to each well, and incubated overnight to make the cells stick to a wall. Different concentrations of the drugs are added on the second day. After treating the cells with the drugs for 4 days, cell viability is measured by the MTS kit (Promega, USA). To each well, 10% of an MTS reagent is added, and incubation continued for 2 hours. The absorbance value at […] is then measured by the multi-functional microplate reader. The Graphpad Prism software is used to draw a curve by using the drug concentration as an abscissa and using the absorbance value of the drug treatment/the absorbance value of the blank treatment cell as an ordinate.

[1] = test system: Histone deacetylase (HDAC); assay: HDAC inhibitory activity: Kac-H3 Western Blot in VCaP cells; format: cell-based; details: 10 uM drug, 24 h, FIG. 5
Description: (§1) The VCap cells are cultured in the 6-well plate. After treating the VCap cells with the drugs for 24 hours, acetylation levels of the tubulin in the cytoplasm and the H3 protein in the nucleus are examined by the western blot. An experiment process is as follows:
The VCaP cells are spread in the 6-well plate. 5×10^5 cells are inoculated per well, and incubated overnight to make the cells stick to a wall. Then 10 uM of the drug is added to each well. The cells are collected after being incubated for 24 h. The EpiQuik Total Histone Extraction kit (Epigentek, USA) is used to extract the histones, and the Western Blot method is used to detect expression levels of Kac-H3 (localized cell nucleus) in the cells after adding the different drugs.

AR-LBD (GST) = target: T2, AR-LBD (GST) (Rattus norvegicus, UniProt P15207); assay: PolarScreen Androgen Receptor (AR) Competitor Assay, binding experiment of the antagonist and AR; details: fluorescence polarization, incubated 6 hours, FIG. 1; read-out: IC50 of the drug and AR-LBD binding
T2 construct: purchased Life technologies company, USA
T2 sequence (P15207 651-882 limits assumed): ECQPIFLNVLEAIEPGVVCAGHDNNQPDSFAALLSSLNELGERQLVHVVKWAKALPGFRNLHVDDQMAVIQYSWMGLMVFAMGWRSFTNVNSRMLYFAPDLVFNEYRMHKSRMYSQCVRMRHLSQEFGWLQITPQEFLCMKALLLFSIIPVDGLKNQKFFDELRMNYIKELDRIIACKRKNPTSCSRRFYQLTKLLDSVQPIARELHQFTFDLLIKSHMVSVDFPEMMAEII
Excerpt: PolarScreen™ Androgen Receptor (AR) Competitor Assay, Green kit (Life technologies company, USA) is used to test the affinity of the antagonist to AR-LBD (GST). The mechanism of the experiment is that the AR-LBD is combined with a small molecule fluormone tracer (Fluormone Tracer), and an antagonist added can competitively bind with AR-LBD so as to replace the fluormone tracer, and the replaced fluormone tracer […], and the value of the fluorescence polarization is inversely proportional to the number of the replaced tracers.
A specific process is as follows: the drug is dissolved into 500 uM by using DMSO, and then diluted to 244 nM by double dilution concentration gradients in a 96-well plate. A 10 uL of a reaction system AR-LBD+Tracer is configured in a 384-well plate and 10 uL of the drug solution is added. The positive control is 10 uL of AR-LBD+Tracer with 10 uL of DHT added. The 384-well plate is wrapped by tin foil and incubated for 6 hours in the dark. The fluorescence polarization value is read on a multi-function microplate reader. Graphpad Prism software is used to draw a drug concentration as an abscissa, and the fluorescence polarization value is used as an ordinate for drawing a curve. […] Herein, the DHT, MDV3100, and ARN509 are positive controls.

[2] = test system: Histone deacetylase (HDAC); assay: HDAC inhibitory activity: Kac-tubulin Western Blot in VCaP cells; format: cell-based; details: 10 uM drug, 24 h, FIG. 4
Description: as §1
The VCaP cells are spread in the 6-well plate. 5×10^5 cells are inoculated per well, and incubated overnight to make the cells stick to a wall. On the second day, 10 uM of the drug is added per well. After being incubated for 24 h, the cells are collected, and lysed to extract the cell total protein. The Western Blot method is used to detect the expression levels of Kac-tubilin (localized cytoplasm) in the cells after treating with the different drugs.

## CC1(C)C(=O)N(c2ccc(C#N)c(Cl)c2)C(=S)N1c1ccc(C(=O)NO)c(F)c1 [Zeta 34, 4-(3-(3-chloro-4-cyanophenyl)-5,5-dimethyl-4-oxo-2-thioimidazolidine-1-yl)-2-fluoro-N-hydroxybenzamide]
Androgen receptor (AR)
  antagonist effect on the AR, antagonistic ability from high to low: Zeta32>Zeta55>Zeta34>Zeta57>Zeta33
VCaP cells
  inhibitory effect on the VCap cell proliferation, from high to low: Zeta55>Zeta32>Zeta33>Zeta34>Zeta57
[1]
  H3 acetylation in the nucleus (HDAC inhibitory activity): superior

## CC1(C)C(=O)N(c2ccc(C#N)c(C(F)(F)F)c2)C(=S)N1c1ccc(C(=O)NO)c(F)c1 [Zeta 32, 4-(3-(4-cyano-3-(trifluoromethyl)phenyl)-5,5-dimethyl-4-oxo-2-thioimidazolidine-1-yl)-2-fluoro-N-hydroxybenzamide]
Androgen receptor (AR)
  antagonist effect on the AR, antagonistic ability from high to low: Zeta32>Zeta55>Zeta34>Zeta57>Zeta33
VCaP cells
  inhibitory effect on the VCap cell proliferation, from high to low: Zeta55>Zeta32>Zeta33>Zeta34>Zeta57
  cell proliferation inhibitory effect compared with positive control drug MDV3100: better than that of the positive control drug MDV3100
AR-LBD (GST)
  IC50: 25.1 µM
[2]
  acetylation of the tubulin in the cytoplasm (HDAC inhibitory activity): superior
[1]
  H3 acetylation in the nucleus (HDAC inhibitory activity): superior

## N#Cc1ncc(N2C(=O)C3(CCC3)N(c3ccc(C(=O)NO)c(F)c3)C2=S)cc1C(F)(F)F [Zeta 57, 4-(7-(6-cyano-5-(trifluoromethyl)pyridin-3-yl)-8-oxo-6-thio-5,7-diazaspiro[3.4]octane-5-yl)-2-fluoro-N-hydroxybenzamide]
Androgen receptor (AR)
  antagonist effect on the AR, antagonistic ability from high to low: Zeta32>Zeta55>Zeta34>Zeta57>Zeta33
VCaP cells
  inhibitory effect on the VCap cell proliferation, from high to low: Zeta55>Zeta32>Zeta33>Zeta34>Zeta57
[1]
  H3 acetylation in the nucleus (HDAC inhibitory activity): superior

## CC1(C)C(=O)N(c2cnc(C#N)c(C(F)(F)F)c2)C(=S)N1c1ccc(C(=O)NO)c(F)c1 [Zeta 33, 4-(3-(6-cyano-5-(trifluoromethyl)pyridin-3-yl)-5,5-dimethyl-4-oxo-2-thioimidazolidine-1-yl)-2-fluoro-N-hydroxybenzamide]
Androgen receptor (AR)
  antagonist effect on the AR, antagonistic ability from high to low: Zeta32>Zeta55>Zeta34>Zeta57>Zeta33
VCaP cells
  inhibitory effect on the VCap cell proliferation, from high to low: Zeta55>Zeta32>Zeta33>Zeta34>Zeta57
  cell proliferation inhibitory effect compared with positive control drug MDV3100: better than that of the positive control drug MDV3100
AR-LBD (GST)
  IC50: 27.5 µM
